Experimental data as given in ChEMBL document CHEMBL5055685, “Discovery of the First Potent IDO1/IDO2 Dual Inhibitors: A Promising Strategy for Cancer Immunotherapy” (J Med Chem, 2021).
Activity calls are given as the source filed them. The calls are words filed in the database; no cut-off is given here.

How the values were obtained:
Mus musculus = experiment: In vivo inhibition of IDO2 in BALB/c mouse xenografted with human HCT-116 cells assessed as suppression of IDO2 mRNA expression in tumor by quantitative RT-PCR analysis; type: functional, organism-based
[1] = target: Myosin-IIIa (Homo sapiens) (UniProt Q8NEV4); experiment: Inhibition of MYO3A (unknown origin) at 1 uM
[2] = target: Dual specificity mitogen-activated protein kinase kinase 2 (Homo sapiens) (UniProt P36507); experiment: Inhibition of MEK2 (unknown origin) at 1 uM
HCT-116 [3] = experiment: Antitumor immunity in BALB/c mouse xenografted with human HCT-116 cells assessed as induction of apoptosis of CD4+ T-lymphocytes in spleen by propidium iodide staining based flow cytometry analysis (reference value: 33.9 %); type: functional
[4] = target: Dual serine/threonine and tyrosine protein kinase (Homo sapiens) (UniProt Q6XUX3); experiment: Inhibition of RIPK5 (unknown origin) at 1 uM
[5] = Protein binding in Sprague-Dawley rat plasma assessed as fraction unbound by equilibrium dialysis; type: ADME, cell-free
[6] = Apparent permeability across apical to basolateral side in human Caco-2 cells assessed as drug recovery; type: ADME, cell-based; conditions: read-out: Drug recovery
[7] = Apparent permeability across basolateral to apical side in human Caco-2 cells assessed as drug recovery; type: ADME, cell-based; conditions: read-out: Drug recovery
[8] = target: Misshapen-like kinase 1 (Homo sapiens) (UniProt Q8N4C8); experiment: Inhibition of MINK1 (unknown origin) at 1 uM
[9] = target: Tyrosine-protein kinase Blk (Homo sapiens) (UniProt P51451); experiment: Inhibition of BLK (unknown origin) at 1 uM
[10] = target: Serine/threonine-protein kinase DCLK1 (Homo sapiens) (UniProt O15075); experiment: Inhibition of DCAMKL1 (unknown origin) at 1 uM
[11] = target: Phosphorylase b kinase gamma catalytic chain, liver/testis isoform (Homo sapiens) (UniProt P15735); experiment: Inhibition of PHKgamma2 (unknown origin) at 1 uM
[12] = target: Fibroblast growth factor receptor 3 (Homo sapiens) (UniProt P22607); experiment: Inhibition of FGFR3 (unknown origin) at 1 uM
[13] = target: Serine/threonine-protein kinase pim-2 (Homo sapiens) (UniProt Q9P1W9); experiment: Inhibition of PIM2 (unknown origin) at 1 uM
[14] = target: Serine/threonine-protein kinase 32B (Homo sapiens) (UniProt Q9NY57); experiment: Inhibition of STK32B (unknown origin) at 1 uM
[15] = target: Mitogen-activated protein kinase kinase kinase kinase 5 (Homo sapiens) (UniProt Q9Y4K4); experiment: Inhibition of KHS (unknown origin) at 1 uM
[16] = target: Dual specificity protein kinase CLK1 (Homo sapiens) (UniProt P49759); experiment: Inhibition of CLK1 (unknown origin) at 1 uM
[17] = target: Serine/threonine-protein kinase TBK1 (Homo sapiens) (UniProt Q9UHD2); experiment: Inhibition of TBK1 (unknown origin) at 1 uM
[18] = Toxicity in rat assessed as maximum tolerated dose; type: organism-based; conditions: in vivo
HCT-116 [19] = experiment: Antitumor immunity in BALB/c mouse xenografted with human HCT-116 cells assessed as increase in CD86 expression in CD11c+ cells by propidium iodide staining based flow cytometry analysis (reference value: 72 %); type: functional
[20] = target: Serine/threonine-protein kinase MARK2 (Homo sapiens) (UniProt Q7KZI7); experiment: Inhibition of MARK2 (unknown origin) at 1 uM
[21] = target: cAMP-dependent protein kinase catalytic subunit PRKX (Homo sapiens) (UniProt P51817); experiment: Inhibition of PRKX (unknown origin) at 1 uM
[22] = target: Ribosomal protein S6 kinase alpha-6 (Homo sapiens) (UniProt Q9UK32); experiment: Inhibition of RSK4 (unknown origin) at 1 uM
[23] = AUC (0 to t) in Sprague-Dawley rat at 5 mg/kg, iv; type: ADME, organism-based; parameters: dose 5 mg/kg, route iv; conditions: in vivo
[24] = target: Serine/threonine-protein kinase/endoribonuclease IRE1 (Homo sapiens) (UniProt O75460); experiment: Inhibition of ERN1 (unknown origin) at 1 uM
[25] = target: Homeodomain-interacting protein kinase 3 (Homo sapiens) (UniProt Q9H422); experiment: Inhibition of HIPK3 (unknown origin) at 1 uM
[26] = Apparent permeability across apical to basolateral side in human Caco-2 cells; type: ADME, cell-based
[27] = target: Serine/threonine-protein kinase LATS1 (Homo sapiens) (UniProt O95835); experiment: Inhibition of LATS1 (unknown origin) at 1 uM
PBMC = experiment: Inhibition of IDO1/IDO2 in IFNgamma/LPS-stimulated human PBMCs assessed as reduction in kynurenine formation at 0.0001 to 10 uM pretreated with compound for 15 mins followed by IFNgamma/LPS stimulation by LC-MS/MS analysis; type: tissue-based; conditions: dose 0.0001-10 µM
[28] = target: CDK6/cyclin D3 (Homo sapiens) (UniProt P30281+Q00534); experiment: Inhibition of CDK6/cyclin-D3 (unknown origin) at 1 uM; type: protein-complex assay
[29] = target: Casein kinase II subunit alpha' (Homo sapiens) (UniProt P19784); experiment: Inhibition of CK2A2 (unknown origin) at 1 uM
[30] = target: Citron Rho-interacting kinase (Homo sapiens) (UniProt O14578); experiment: Inhibition of STK21 (unknown origin) at 1 uM
[31] = target: Serine/threonine-protein kinase Nek8 (Homo sapiens) (UniProt Q86SG6); experiment: Inhibition of NEK8 (unknown origin) at 1 uM
[32] = target: PAS domain-containing serine/threonine-protein kinase (Homo sapiens) (UniProt Q96RG2); experiment: Inhibition of PASK (unknown origin) at 1 uM
[33] = target: Serine/threonine-protein kinase LATS2 (Homo sapiens) (UniProt Q9NRM7); experiment: Inhibition of LATS2 (unknown origin) at 1 uM
[34] = target: Ephrin type-A receptor 4 (Homo sapiens) (UniProt P54764); experiment: Inhibition of EPHA4 (unknown origin) at 1 uM
[35] = target: Mitogen-activated protein kinase kinase kinase 7 (Homo sapiens) (UniProt O43318); experiment: Inhibition of TAK1 (unknown origin) at 1 uM
[36] = target: Ephrin type-A receptor 3 (Homo sapiens) (UniProt P29320); experiment: Inhibition of EPHA3 (unknown origin) at 1 uM
[37] = target: Dual specificity mitogen-activated protein kinase kinase 1 (Homo sapiens) (UniProt Q02750); experiment: Inhibition of MEK1 (unknown origin) at 1 uM
[38] = target: Serine/threonine-protein kinase BRSK2 (Homo sapiens) (UniProt Q8IWQ3); experiment: Inhibition of BRSK2 (unknown origin) at 1 uM
[39] = target: STE20-like serine/threonine-protein kinase (Homo sapiens) (UniProt Q9H2G2); experiment: Inhibition of SLK (unknown origin) at 1 uM
[40] = target: Glycogen synthase kinase-3 beta (Homo sapiens) (UniProt P49841); experiment: Inhibition of GSK3B (unknown origin) at 1 uM
HCT-116 [41] = experiment: Antitumor immunity in BALB/c mouse xenografted with human HCT-116 cells assessed as increase in IL-2 in serum by […]; type: functional, cell-based

Chain of STE20-like serine/threonine-protein kinase (Homo sapiens) (Q9H2G2 whole entry, looked up): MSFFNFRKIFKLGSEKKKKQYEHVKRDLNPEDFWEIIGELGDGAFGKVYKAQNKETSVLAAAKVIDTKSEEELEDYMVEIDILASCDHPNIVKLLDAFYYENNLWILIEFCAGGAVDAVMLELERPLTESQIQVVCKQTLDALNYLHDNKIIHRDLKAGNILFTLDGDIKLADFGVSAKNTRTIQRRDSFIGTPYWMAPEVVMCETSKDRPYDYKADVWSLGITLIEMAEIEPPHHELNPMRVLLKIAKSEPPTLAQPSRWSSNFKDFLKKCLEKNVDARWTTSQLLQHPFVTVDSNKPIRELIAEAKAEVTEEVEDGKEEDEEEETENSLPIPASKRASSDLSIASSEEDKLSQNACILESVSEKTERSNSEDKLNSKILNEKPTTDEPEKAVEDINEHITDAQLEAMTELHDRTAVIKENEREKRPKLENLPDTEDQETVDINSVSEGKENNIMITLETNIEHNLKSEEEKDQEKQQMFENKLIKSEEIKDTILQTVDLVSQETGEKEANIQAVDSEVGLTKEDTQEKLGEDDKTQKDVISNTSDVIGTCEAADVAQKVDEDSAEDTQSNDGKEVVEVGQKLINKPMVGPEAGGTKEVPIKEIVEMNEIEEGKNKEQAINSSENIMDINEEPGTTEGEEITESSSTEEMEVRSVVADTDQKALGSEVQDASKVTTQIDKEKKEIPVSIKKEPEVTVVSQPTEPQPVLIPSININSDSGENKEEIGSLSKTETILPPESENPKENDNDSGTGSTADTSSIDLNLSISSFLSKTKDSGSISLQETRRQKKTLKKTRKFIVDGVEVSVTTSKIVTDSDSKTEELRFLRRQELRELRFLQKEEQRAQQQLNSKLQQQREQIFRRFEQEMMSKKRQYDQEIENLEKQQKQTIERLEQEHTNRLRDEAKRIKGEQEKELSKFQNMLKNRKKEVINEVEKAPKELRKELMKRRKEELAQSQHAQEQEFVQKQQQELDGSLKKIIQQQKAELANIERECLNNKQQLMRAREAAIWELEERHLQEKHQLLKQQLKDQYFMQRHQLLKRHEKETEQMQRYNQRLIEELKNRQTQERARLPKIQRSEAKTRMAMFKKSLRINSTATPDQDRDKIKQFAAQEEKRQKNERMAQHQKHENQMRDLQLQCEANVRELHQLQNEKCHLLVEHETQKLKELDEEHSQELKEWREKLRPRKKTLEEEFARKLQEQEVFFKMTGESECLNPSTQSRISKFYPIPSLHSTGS
Chain of Serine/threonine-protein kinase/endoribonuclease IRE1 (Homo sapiens) (O75460 19-977 limits assumed): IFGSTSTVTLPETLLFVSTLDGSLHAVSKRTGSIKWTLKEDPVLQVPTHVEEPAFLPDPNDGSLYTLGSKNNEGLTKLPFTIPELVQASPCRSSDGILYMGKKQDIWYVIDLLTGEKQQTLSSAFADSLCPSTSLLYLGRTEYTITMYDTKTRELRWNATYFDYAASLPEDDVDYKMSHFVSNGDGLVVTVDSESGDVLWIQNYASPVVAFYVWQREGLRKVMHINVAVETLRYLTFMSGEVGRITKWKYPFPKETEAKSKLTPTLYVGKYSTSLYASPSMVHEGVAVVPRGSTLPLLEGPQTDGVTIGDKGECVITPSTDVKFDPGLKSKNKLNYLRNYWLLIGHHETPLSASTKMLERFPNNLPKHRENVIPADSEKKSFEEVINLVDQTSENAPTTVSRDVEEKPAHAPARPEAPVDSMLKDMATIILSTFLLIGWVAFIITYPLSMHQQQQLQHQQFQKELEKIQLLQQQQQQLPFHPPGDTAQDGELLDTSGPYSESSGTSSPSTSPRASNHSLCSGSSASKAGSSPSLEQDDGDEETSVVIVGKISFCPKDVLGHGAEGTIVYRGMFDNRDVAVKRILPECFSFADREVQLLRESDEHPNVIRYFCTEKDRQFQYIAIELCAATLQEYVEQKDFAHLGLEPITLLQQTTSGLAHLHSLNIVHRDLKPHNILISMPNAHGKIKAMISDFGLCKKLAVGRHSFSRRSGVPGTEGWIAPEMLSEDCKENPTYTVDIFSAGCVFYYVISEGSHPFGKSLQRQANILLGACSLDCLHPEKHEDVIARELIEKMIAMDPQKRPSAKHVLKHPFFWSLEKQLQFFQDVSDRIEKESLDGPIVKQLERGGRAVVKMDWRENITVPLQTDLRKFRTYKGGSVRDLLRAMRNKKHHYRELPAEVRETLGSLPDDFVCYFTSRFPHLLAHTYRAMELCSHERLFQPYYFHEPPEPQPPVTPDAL
Chain of Casein kinase II subunit alpha' (Homo sapiens) (P19784 whole entry, looked up): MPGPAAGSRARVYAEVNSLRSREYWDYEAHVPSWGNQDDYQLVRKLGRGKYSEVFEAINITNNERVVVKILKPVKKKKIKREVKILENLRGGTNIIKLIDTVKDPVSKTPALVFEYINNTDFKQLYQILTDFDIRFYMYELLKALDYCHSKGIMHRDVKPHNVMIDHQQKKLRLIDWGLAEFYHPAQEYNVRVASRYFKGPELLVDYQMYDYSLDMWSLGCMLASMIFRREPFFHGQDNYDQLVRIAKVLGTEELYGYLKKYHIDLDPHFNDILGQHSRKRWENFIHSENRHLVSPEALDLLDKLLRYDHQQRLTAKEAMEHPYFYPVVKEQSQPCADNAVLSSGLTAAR
Chain of Serine/threonine-protein kinase 32B (Homo sapiens) (Q9NY57 whole entry): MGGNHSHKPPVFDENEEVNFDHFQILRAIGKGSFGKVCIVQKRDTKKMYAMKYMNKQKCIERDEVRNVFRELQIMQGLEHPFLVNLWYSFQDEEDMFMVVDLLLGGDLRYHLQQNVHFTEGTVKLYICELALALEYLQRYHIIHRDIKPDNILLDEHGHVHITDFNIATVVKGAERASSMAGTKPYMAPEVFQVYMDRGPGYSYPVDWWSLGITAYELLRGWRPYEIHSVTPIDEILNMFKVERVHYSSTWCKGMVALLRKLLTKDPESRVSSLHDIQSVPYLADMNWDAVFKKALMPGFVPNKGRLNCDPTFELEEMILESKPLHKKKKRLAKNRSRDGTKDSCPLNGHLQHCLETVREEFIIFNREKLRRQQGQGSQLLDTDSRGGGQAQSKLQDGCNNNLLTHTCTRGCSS
Chain of Serine/threonine-protein kinase DCLK1 (Homo sapiens) (O15075 whole entry, canonical isoform): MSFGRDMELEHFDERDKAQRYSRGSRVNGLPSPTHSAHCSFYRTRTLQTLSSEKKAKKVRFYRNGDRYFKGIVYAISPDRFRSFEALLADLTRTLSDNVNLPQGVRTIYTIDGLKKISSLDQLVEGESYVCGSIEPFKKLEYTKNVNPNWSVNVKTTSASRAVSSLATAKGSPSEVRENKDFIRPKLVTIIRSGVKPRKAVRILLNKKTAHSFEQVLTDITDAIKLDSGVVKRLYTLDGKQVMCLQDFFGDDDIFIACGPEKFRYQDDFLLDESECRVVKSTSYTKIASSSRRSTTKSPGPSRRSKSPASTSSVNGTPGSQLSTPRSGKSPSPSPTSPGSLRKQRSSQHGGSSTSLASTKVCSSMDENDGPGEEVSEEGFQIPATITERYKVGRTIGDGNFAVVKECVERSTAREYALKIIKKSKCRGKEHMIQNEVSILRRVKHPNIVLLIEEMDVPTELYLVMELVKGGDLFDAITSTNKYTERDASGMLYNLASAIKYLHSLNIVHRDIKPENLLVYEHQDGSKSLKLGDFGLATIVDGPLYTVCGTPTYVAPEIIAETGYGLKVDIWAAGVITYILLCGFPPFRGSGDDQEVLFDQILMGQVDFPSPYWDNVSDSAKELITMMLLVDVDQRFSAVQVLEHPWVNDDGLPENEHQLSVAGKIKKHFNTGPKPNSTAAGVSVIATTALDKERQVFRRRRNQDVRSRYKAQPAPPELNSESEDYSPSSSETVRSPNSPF
Chain of Serine/threonine-protein kinase LATS2 (Homo sapiens) (Q9NRM7 whole entry): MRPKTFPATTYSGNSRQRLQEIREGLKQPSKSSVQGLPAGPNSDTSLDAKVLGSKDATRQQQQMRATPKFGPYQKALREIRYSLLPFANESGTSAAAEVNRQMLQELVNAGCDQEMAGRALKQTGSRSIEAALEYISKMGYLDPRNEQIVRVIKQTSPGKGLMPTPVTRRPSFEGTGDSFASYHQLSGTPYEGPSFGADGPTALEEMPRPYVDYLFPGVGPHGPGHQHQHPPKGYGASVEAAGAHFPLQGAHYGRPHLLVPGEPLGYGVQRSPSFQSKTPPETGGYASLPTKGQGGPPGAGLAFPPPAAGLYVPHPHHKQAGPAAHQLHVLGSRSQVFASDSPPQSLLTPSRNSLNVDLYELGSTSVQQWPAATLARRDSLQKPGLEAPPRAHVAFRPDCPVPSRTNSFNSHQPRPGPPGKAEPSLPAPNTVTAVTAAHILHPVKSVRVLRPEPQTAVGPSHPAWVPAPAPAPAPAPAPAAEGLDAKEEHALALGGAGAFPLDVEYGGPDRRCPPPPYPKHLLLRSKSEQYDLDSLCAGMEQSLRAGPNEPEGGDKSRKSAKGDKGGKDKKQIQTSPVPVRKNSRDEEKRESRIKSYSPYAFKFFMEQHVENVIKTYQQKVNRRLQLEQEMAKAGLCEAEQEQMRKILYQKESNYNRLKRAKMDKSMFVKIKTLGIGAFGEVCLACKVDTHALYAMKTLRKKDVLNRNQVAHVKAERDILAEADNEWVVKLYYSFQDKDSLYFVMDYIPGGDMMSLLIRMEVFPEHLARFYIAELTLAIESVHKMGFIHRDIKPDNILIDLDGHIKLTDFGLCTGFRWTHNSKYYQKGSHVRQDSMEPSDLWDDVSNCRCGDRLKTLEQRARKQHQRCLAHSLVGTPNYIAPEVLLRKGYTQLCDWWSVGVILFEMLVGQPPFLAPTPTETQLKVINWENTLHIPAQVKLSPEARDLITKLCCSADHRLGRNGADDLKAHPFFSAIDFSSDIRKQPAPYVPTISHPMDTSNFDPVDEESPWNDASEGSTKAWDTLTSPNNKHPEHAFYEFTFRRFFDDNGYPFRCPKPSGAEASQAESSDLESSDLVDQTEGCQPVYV

For OCCOCc1cn(CCNc2nonc2/C(=N/O)Nc2ccc(F)c(Br)c2)nn1, the inhibition (Mus musculus) was “Active”, the inhibition [1] was “inactive” and the inhibition [2] was “inactive”. For the same compound, the Activity (HCT-116 [3]) was 15.3%, the inhibition [4] was “inactive” and the fraction unbound [5] was 0.0672. For the same compound, the recovery [6] was 91.1%, the recovery [7] was 112% and the inhibition [8] was “inactive”. For the same compound, the inhibition [9] was “inactive”, the inhibition [10] was “inactive” and the inhibition [11] was “inactive”. The inhibition [12] was “inactive”, the inhibition [13] was “inactive” and the inhibition [14] was “inactive”. The inhibition [15] was “inactive”, the inhibition [16] was “inactive” and the inhibition [17] was “inactive”. The MTD [18] was 2 mg/kg, the Activity (HCT-116 [19]) was 62.6% and the inhibition [20] was “inactive”. The inhibition [21] was “inactive”, the inhibition [22] was “inactive” and the AUC(0-t) [23] was 3040 ng·h/mL. The inhibition [24] was “inactive”, the inhibition [25] was “inactive” and the Papp A→B [26] was 7.2 ×10⁻⁶ cm/s. For the same compound, the inhibition [27] was “inactive”, the inhibition (PBMC) was “Active” and the inhibition [28] was “inactive”. For the same compound, the inhibition [29] was “inactive”, the inhibition [30] was “inactive” and the inhibition [31] was “inactive”. The inhibition [32] was “inactive”, the inhibition [33] was “inactive” and the inhibition [34] was “inactive”. The inhibition [35] was “inactive”, the inhibition [36] was “inactive” and the inhibition [37] was “inactive”. The inhibition [38] was “inactive”, the inhibition [39] was “inactive” and the inhibition [40] was “inactive”. The Activity (HCT-116 [41]) was “Active”.
